One data set has as its target human NK1 receptor (Homo sapiens (Human), UniProt P25103). In words: Inhibitory effect on human NK1 receptor (substance P-induced increase in intracellular calcium concentration). Format: cell-based. Conditions: HEK-293T; substance P 1 μM, compound 0.1 μM; human NK1 receptor-expressing 293T cells; read-out: SPRR (Substance P-Response Remaining). The procedure: Inhibitory Effect on Human NK1 Receptor
(1) Preparation of Human NK1 Receptor-expressing Cells
Human NK1 receptor-expressing cells were prepared by the same methods as those described in 2-3 and 2-4 of Test Example 1.
(2) Study on Inhibitory Effect on Increase in Intracellular Calcium Concentration
The human NK1 receptor-expressing cells were washed with 300 μL/well of a washing solution (20 mM HEPES/Hank's Balanced Salt Solution (HBSS) […]). A fluorescent calcium indicator (Fluo-4 Direct Calcium Assay Kit, Life Technologies, containing 0.42 mM probenecid and 0.1% bovine serum albumin, prepared according to the protocol of the product) was added to the wells at 150 μL/well, and the plate was incubated at 37° C. for 30 minutes in an incubator. Then, DMSO solutions of a test compound, which were prepared at an 80-time higher concentration using 100% dimethyl sulfoxide (DMSO), were added to the wells at 2.5 μL/well (final concentrations of 0.1, 1 and 10 μM), and the solutions were mixed. Then, the plate was further incubated at 37° C. for 30 minutes in an incubator. After 30 minutes, the intracellular calcium concentrations were measured immediately.
The intracellular calcium concentrations were each measured as a fluorescent signal using FDSS (registered trademark) 7000 (Hamamatsu Photonics). A substance P (Peptide Institute, Inc.) solution which was prepared at 0.4 μM or 4 μM using an assay buffer (20 mM HEPES/Hank's Balanced Salt Solution (HBSS) pH 7.3, containing 0.1% bovine serum albumin) was added automatically to each well at 50 μL/well (final concentration of 0.1 or 1 μM) 10 seconds after starting reading, and the fluorescent signal was measured up to 120 seconds.
The intracellular calcium concentration (%) of the cells to which a test compound was added was calculated by the equation below, where the fluorescent signal of the group to which the vehicle (DMSO) was added was regarded as 100%, and the fluorescent signal before the addition of substance P was regarded as 0%. Intracellular calcium concentration(%)=(Fluorescent signal of test compound addition group)/(Fluorescent signal of vehicle addition group)×100
The intracellular calcium concentration (%) calculated was regarded as the remaining agonist activity of substance P (Substance P-Response Remaining: SPRR). In the table, Ex. No. means the Example number. SPRR (%) is the value obtained when the concentration of substance P was 1 μM and the concentration of the compound was 0.1 μM.
In general terms: A change in cytosolic calcium serves as a functional read-out for many receptors and channels.

The next data set concerns the target NK1 receptor (Meriones unguiculatus (Mongolian jird) (Gerbillus unguiculatus), UniProt Q5DUB1). The experiment in a line: Effect on GR73632-induced foot-tapping. The data set is classed as in vivo. Conditions: 0.3 mg/kg from the jugular vein, GR73632 after four hours, male gerbil. The procedure: (1) Effect on Foot-tapping
A male gerbil (Japan SLC) was anesthetized with isoflurane, and 0.3 mg/kg of a test compound was administered from the jugular vein. After four hours, GR73632 (5 pmol/5 μl), which is an NK1 receptor agonist, was administered into the cerebral ventricle at the part 1 mm lateral to and 4.5 mm below the bregma in the head, under anesthesia with isoflurane. After the administration, the gerbil was moved to an observation cage, and the foot-tapping period during five minutes after the recovery of the righting reflex was measured. The foot-tapping inhibition rate (%) of each test compound was calculated by the following equation. Foot-tapping inhibition rate (%)={1−(Foot-tapping period when test compound was administered)/(Foot-tapping period when solvent was administered)}×100 (2) Measurement of Drug Concentrations
In the table, Ex. No. means the Example number. Inhibition (%) is the foot-tapping inhibition rate, and Conc. (nM) is the drug concentration in the brain.

The nature of data set [1]: Ferret pharmacokinetic test. The data set is classed as in vivo. The note with it: plasma, male ferret. The method, then:
Ferret Pharmacokinetic Test
The test compound solution was prepared by dissolving the test compound in a vehicle (50% N,N-dimethylformamide (Wako Pure Chemical Industries), 30% propylene glycol (Wako Pure Chemical Industries) and 4% 2-hydroxypropyl-β-cyclodextrin (Wako Pure Chemical Industries)). Under anesthesia with isoflurane 0.3 mg/kg of the test compound was intravenously administered to a male ferret (Marshall BioResources Japan) from the jugular vein. In the case of oral administration, 1 mg/kg of the test compound was orally administered to an awake animal. After the administration of the test compound, blood samples were taken sequentially from the brachial cephalic vein, and the concentrations of the test compound in the plasma were measured by a quantitative analysis using liquid chromatography-mass spectrometry (LC/MS).
In the tables, Ex. No. means the Example number. CLtot and Vss are the total body clearance and the steady-state volume of distribution, based on the plasma concentrations in the case of intravenous administration, respectively, Cmax, AUC and BA are the maximum plasma test compound concentration, the area under the plasma test compound concentration-time curve and the bioavailability, in the case of oral administration, respectively, […]

Data set [2] deals with cisplatin-induced acute and delayed emetic response. In words: Effect on cisplatin-induced acute and delayed emetic response. Format: in vivo, ferret. The procedure: No 1, 1 mg/kg, po) in the acute phase, and a value of control group, the group intravenously administered with 3 mg/kg of the compound of Example 1 (Ex. […] No 1, 1 mg/kg, po) in the delayed phase from the left respectively. The vertical axes show the number of retching and vomiting ([…]) (the mean+standard error of 5 examples of control group, the mean+standard error of 5 examples of the group intravenously administered, and the mean+standard error of 5 examples of the group orally administered). Effect on Cisplatin-induced Acute and Delayed Emetic Response The test compound solution was prepared by dissolving the test compound in a vehicle (a mixture of 50% N,N-dimethylformamide (Wako Pure Chemical Industries), 30% propylene glycol (Wako Pure Chemical Industries) and 4% 2-hydroxypropyl-β-cyclodextrin (Wako Pure Chemical Industries)). The vehicle only was administered to the control group. Under anesthesia with isoflurane, 3 mg/kg of the test compound was intravenously administered to a male ferret (Marshall BioResources Japan) from the jugular vein. Cisplatin, which was heated to 40-50° C., was intraperitoneally administered at 5 mg/kg one hour after the drug administration. […] The solvent only was administered to the control group. The test compound was orally administered to a male ferret (Marshall BioResources Japan). The oral administration was performed every 24 hours at 1 mg/kg three times in total. Cisplatin, which was heated to 40-50° C., was intraperitoneally administered at 5 mg/kg one hour after the first oral administration of the test compound.

Chain of NK1 receptor (Q5DUB1 whole entry): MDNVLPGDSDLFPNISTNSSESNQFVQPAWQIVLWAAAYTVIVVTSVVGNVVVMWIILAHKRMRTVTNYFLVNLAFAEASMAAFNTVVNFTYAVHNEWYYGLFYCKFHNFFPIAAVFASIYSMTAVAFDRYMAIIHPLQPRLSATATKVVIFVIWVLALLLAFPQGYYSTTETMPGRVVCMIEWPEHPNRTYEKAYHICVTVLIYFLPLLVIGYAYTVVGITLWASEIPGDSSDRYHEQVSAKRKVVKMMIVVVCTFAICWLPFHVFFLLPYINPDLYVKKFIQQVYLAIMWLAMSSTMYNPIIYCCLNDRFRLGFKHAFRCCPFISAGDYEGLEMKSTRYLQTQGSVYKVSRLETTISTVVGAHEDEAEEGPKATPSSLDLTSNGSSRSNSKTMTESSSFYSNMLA
Chain of human NK1 receptor (P25103 whole entry): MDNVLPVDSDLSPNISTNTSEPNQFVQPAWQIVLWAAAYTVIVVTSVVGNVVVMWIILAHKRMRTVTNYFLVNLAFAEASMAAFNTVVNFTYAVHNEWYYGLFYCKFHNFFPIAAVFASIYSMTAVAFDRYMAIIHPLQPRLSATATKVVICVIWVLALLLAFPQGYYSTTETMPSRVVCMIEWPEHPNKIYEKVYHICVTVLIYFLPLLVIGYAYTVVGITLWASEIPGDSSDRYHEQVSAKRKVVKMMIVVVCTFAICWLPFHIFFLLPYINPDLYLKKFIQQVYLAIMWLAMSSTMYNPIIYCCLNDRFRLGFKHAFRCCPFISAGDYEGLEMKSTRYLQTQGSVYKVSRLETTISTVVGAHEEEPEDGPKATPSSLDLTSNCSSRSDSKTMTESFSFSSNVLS

`Cc1cc(F)ccc1-c1cc(N2CCC(CC(=O)O)CC2)ncc1N(C)C(=O)C(C)(C)c1cc(C(F)(F)F)cc(C(F)(F)F)c1` [Example 1]: the remaining activity at 0.1 µM on human NK1 receptor came to 28%. Moreover, the “Inhibition (foot-tapping inhibition rate)” value on NK1 receptor came to 100%. Moreover, in data set [1] (0.3 mg/kg intravenous, read-out: CLtot (total body clearance)), the clearance (usually the rate of elimination divided by the concentration) is 0.75 mL/min/kg. Further, the Vd in data set [1] (0.3 mg/kg intravenous, read-out: Vss (steady-state volume of distribution)) was determined as 0.336 L/kg. Moreover, in data set [1] (1 mg/kg oral, read-out: BA (bioavailability)), the bioavailability (in general, dose-corrected exposure relative to a reference, in per cent) was found to be 61%. Further, the Cmax in data set [1] (1 mg/kg oral, read-out: Cmax (maximum plasma test compound concentration)) is 1270 ng/mL. The “number of retching and vomiting” value in data set [2] (1 mg/kg po every 24 hours three times, acute phase (up to 24 hours after cisplatin)) was “inhibition of the number of retching and vomiting was observed”; in data set [2] (1 mg/kg po every 24 hours three times, delayed phase (24 to 72 hours after cisplatin)), “inhibition of the number of retching and vomiting was observed”; in data set [2] (3 mg/kg iv, acute phase (up to 24 hours after cisplatin)), “inhibition of the number of retching and vomiting was observed”; in data set [2] (3 mg/kg iv, delayed phase (24 to 72 hours after cisplatin)), “inhibition of the number of retching and vomiting was observed”.

For the origin of these results see patent US10100030B2 (Kissei Pharmaceutical Co., Ltd., priority 2013, dated 2018).
